≈ marks a conversion by molar mass, not a printed value. Where two headings read alike, the source gives them in different places. *1 amine or outer side, *2 acyl side, *3 side chain or, on linkers, in order; H or OH if unused. Where a SMILES comes first, the peptide text is derived from it. Bridges are numbered along the chain shown (N, C = ends). [ ]: non-standard residue; d: D form. The star is where a group is joined. ξ: configuration not given here. Phe(3R-OH) = O=C([C@@H](N[*:1])[C@H](O[*:3])c1ccccc1)[*:2]; Phe(4-NO2) = N[C@@H](Cc1ccc([N+](=O)[O-])cc1)C(=O)O; Phe(3,4-(OMe)2) = COc1ccc(C[C@H](N)C(=O)O)cc1OC; Asn(3S-OH) = NC(=O)[C@@H](O)[C@H](N)C(=O)O; Leu(3R-OH) = CC(C)[C@@H](O)[C@H](N)C(=O)O; d(tBuAla) = CC(C)(C)C[C@@H](N)C(=O)O; tBuAla = CC(C)(C)C[C@H](N)C(=O)O; 2Pal = N[C@@H](Cc1ccccn1)C(=O)O; aThr = C[C@H](O)[C@H](N)C(=O)O; ξIle = CC[C@H](C)C(N)C(=O)O; Ac6c = NC1(C(=O)O)CCCCC1; Cbz = O=C(OCc1ccccc1)*; Bn = c1ccc(C*)cc1; OtBu = CC(C)(C)O*
How the values were obtained:
[1] = system: Staphylococcus aureus 133; assay type: cell-based
Protocol: (§1) Determination of the Minimum Inhibitory Concentration (MIC):
(§2) The MIC is determined in the liquid dilution test in accordance with the NCCLS guidelines. Overnight cultures of Staphylococcus aureus 133, Enterococcus faecalis 27159, E. faecium 4147 and Streptococcus pneumoniae G9a are incubated with the desired test substances in a 1:2 dilution series. The MIC determination is carried out with a cell count of 10^5 microbes per ml in Isosensitest medium (Difco, Irvine/USA), with the exception of S. pneumoniae which is tested in BHI broth (Difco, Irvine/USA) with 10% bovine serum with a cell count of 10^6 microbes per ml. The cultures are incubated at 37° C. for 18-24 hours, S. pneumoniae in the presence of 10% CO2.
(§3) The MIC is defined as the lowest concentration of each substance at which visible bacterial growth no longer occurs. The MIC values are reported in μg/ml.

[2] = system: Streptococcus pneumoniae G9a; assay type: cell-based
Protocol: as §1, §2, §3

[3] = system: E. faecalis ICB 27159; assay type: cell-based, Enterococcus faecalis
Protocol: as §1, §2, §3

[4] = system: E. faecium L4001; assay type: cell-based, Enterococcus faecium
[5] = Isosensitest medium, 10^5 microbes per ml, 37° C., 18-24 hours
[6] = BHI broth with 10% bovine serum, 10^6 microbes per ml, 10% CO2, 37° C., 18-24 hours

Row | SMILES | MIC S. aureus 133 [1]; 133 [µg/mL] | MIC S. pneumoniae ([2]; G9a) [µg/mL] | MIC E. faecalis ICB 27159 ([3]; ICB 27159) [µg/mL] | MIC E. faecium L4001 ([4]; L4001) [µg/mL] | MIC S. aureus 133 [1, 5] [µg/mL] | MIC S. pneumoniae [2, 6] | MIC E. faecalis ICB 27159 [3, 5] [µg/mL] | MIC E. faecium L4001 [4, 5] [µg/mL]
1 | CC[C@H](C)[C@@H]1NC(=O)[C@@H](CCCNC(=N)N)NC(=O)[C@H](CC(C)C)NC(=O)[C@H]([C@H](O)C(C)C)NC(=O)[C@@H](NC(=O)[C@H](Cc2ccccc2)NC(=O)[C@H](N)CC(C)C)[C@@H](c2ccccc2)OC(=O)[C@H](CO)NC(=O)[C@H]([C@H](O)C(N)=O)NC(=O)CNC(=O)[C@H]([C@H](C)O)NC1=O.O=C(O)C(F)(F)F.O=C(O)C(F)(F)F [Example 74, D-Leucyl-L-phenylalanyl-de(1-D-leucyl-2-L-leucyl)lysobactin bistrifluoroacetate] (H-[dL]F[Phe(3R-OH)][Leu(3R-OH)]L[dR]I[aThr]G[Asn(3S-OH)]S; ester 3-C) | 0.125 | 0.063 | 1 | 0.5 |  |  |  | 
2 | CC[C@H](C)[C@@H]1NC(=O)[C@@H](CCCNC(=N)N)NC(=O)[C@H](CC(C)C)NC(=O)[C@H]([C@H](O)C(C)C)NC(=O)[C@@H](NC(=O)[C@H](Cc2ccc([N+](=O)[O-])cc2)NC(=O)[C@H](N)Cc2ccccc2)[C@@H](c2ccccc2)OC(=O)[C@H](CO)NC(=O)[C@H]([C@H](O)C(N)=O)NC(=O)CNC(=O)[C@H]([C@H](C)O)NC1=O.O=C(O)C(F)(F)F.O=C(O)C(F)(F)F [Example 81, D-Phenylalanyl-4-nitro-L-phenylalanyl-de(1-D-leucyl-2-L-leucyl)lysobactine bistrifluoroacetate] (H-[dF][Phe(4-NO2)][Phe(3R-OH)][Leu(3R-OH)]L[dR]I[aThr]G[Asn(3S-OH)]S; ester 3-C) | 0.5 | 0.25 | 0.25 | 0.25 |  |  |  | 
3 | CC[C@H](C)[C@@H]1NC(=O)[C@@H](CCCNC(=N)N)NC(=O)[C@H](CC(C)C)NC(=O)[C@H]([C@H](O)C(C)C)NC(=O)[C@@H](NC(=O)[C@H](Cc2ccccc2)NC(=O)[C@H](N)Cc2ccccc2)[C@@H](c2ccccc2)OC(=O)[C@H](CO)NC(=O)[C@H]([C@H](O)C(N)=O)NC(=O)CNC(=O)[C@H]([C@H](C)O)NC1=O.O=C(O)C(F)(F)F.O=C(O)C(F)(F)F [Example 82, D-Phenylalanyl-L-phenylalanyl-de(1-D-leucyl-2-L-leucyl)lysobactine bistrifluoroacetate] (H-[dF]F[Phe(3R-OH)][Leu(3R-OH)]L[dR]I[aThr]G[Asn(3S-OH)]S; ester 3-C) | 0.125 | 0.125 | 1 | 0.5 |  |  |  | 
4 | CC[C@H](C)[C@@H]1NC(=O)[C@@H](CCCNC(=N)N)NC(=O)[C@H](CC(C)C)NC(=O)[C@H]([C@H](O)C(C)C)NC(=O)[C@@H](NC(=O)[C@H](Cc2ccc(OC)c(OC)c2)NC(=O)[C@H](N)CC(C)(C)C)[C@@H](c2ccccc2)OC(=O)[C@H](CO)NC(=O)[C@H]([C@H](O)C(N)=O)NC(=O)CNC(=O)[C@H]([C@H](C)O)NC1=O [Example 86, 3-tert-Butyl-D-alanyl-3-(3,4-dimethoxyphenyl)-L-alanyl-de(1-D-leucyl-2-L-leucyl)lysobactin bistri-fluoroacetate] (H-[d(tBuAla)][Phe(3,4-(OMe)2)][Phe(3R-OH)][Leu(3R-OH)]L[dR]I[aThr]G[Asn(3S-OH)]S; ester 3-C) |  |  |  |  | 0.25 (≈ 0.181 µM) | 0.125 µg/mL (≈ 0.0903 µM) | 0.5 (≈ 0.361 µM) | 1 (≈ 0.722 µM)
5 | CC[C@H](C)[C@@H]1NC(=O)[C@@H](CCCNC(=N)N)NC(=O)[C@H](CC(C)C)NC(=O)[C@H]([C@H](O)C(C)C)NC(=O)[C@@H](NC(=O)[C@H](Cc2ccccn2)NC(=O)[C@H](N)CC(C)(C)C)[C@@H](c2ccccc2)OC(=O)[C@H](CO)NC(=O)[C@H]([C@H](O)C(N)=O)NC(=O)CNC(=O)[C@H]([C@H](C)O)NC1=O [Example 97, 3-tert-Butyl-D-alanyl-3-(2-pyridyl)-L-alanyl-de(1-D-leucyl-2-L-leucyl)lysobactin tristrifluoroacetate] (H-[d(tBuAla)][2Pal][Phe(3R-OH)][Leu(3R-OH)]L[dR]I[aThr]G[Asn(3S-OH)]S; ester 3-C) | 1 (≈ 0.754 µM) | 0.125 (≈ 0.0943 µM) | 0.5 (≈ 0.377 µM) | 1 (≈ 0.754 µM) |  |  |  | 
6 | CC[C@H](C)C1NC(=O)[C@@H](CCCNC(=N)N)NC(=O)[C@H](CC(C)C)NC(=O)[C@H]([C@H](O)C(C)C)NC(=O)[C@@H](NC(=O)[C@H](COCc2ccccc2)NC(=O)[C@H](N)CC(C)(C)C)[C@@H](c2ccccc2)OC(=O)[C@H](CO)NC(=O)[C@H]([C@H](O)C(N)=O)NC(=O)CNC(=O)[C@H]([C@H](C)O)NC1=O.O=C(O)C(F)(F)F.O=C(O)C(F)(F)F (stereo partly drawn) [Example 99, (3-tert-Butyl-D-alanyl-O-benzyl-L-seryl)-de(1-D-leucyl-2-L-leucyl)lysobactin bistrifluoroacetate] (H-[d(tBuAla)]S(Bn)[Phe(3R-OH)][Leu(3R-OH)]L[dR][ξIle][aThr]G[Asn(3S-OH)]S; ester 3-C) | 0.25 |  | 0.063 | 0.063 |  | ≦0.063 μg/ml |  | 
7 | CC[C@H](C)C1NC(=O)[C@@H](CCCNC(=N)N)NC(=O)[C@H](CC(C)C)NC(=O)[C@H]([C@H](O)C(C)C)NC(=O)[C@@H](NC(=O)[C@H](CC(=O)OC(C)(C)C)NC(=O)[C@H](N)CC(C)(C)C)[C@@H](c2ccccc2)OC(=O)[C@H](CO)NC(=O)[C@H]([C@H](O)C(N)=O)NC(=O)CNC(=O)[C@H]([C@H](C)O)NC1=O.O=C(O)C(F)(F)F.O=C(O)C(F)(F)F (stereo partly drawn) [Example 101, (2S)-2-[(3-tert-Butyl-D-alanyl)amino]-4-tert-butoxy-4-oxobutanoyl-de(1-D-leucyl-2-L-leucyl)lysobactin bistri-fluoroacetate] (H-[d(tBuAla)]D(OtBu)[Phe(3R-OH)][Leu(3R-OH)]L[dR][ξIle][aThr]G[Asn(3S-OH)]S; ester 3-C) |  |  |  |  | 1 | 0.5 µg/mL | 1 | 1
8 | CC[C@H](C)C1NC(=O)[C@@H](CCCNC(=N)N)NC(=O)[C@H](CC(C)C)NC(=O)[C@H]([C@H](O)C(C)C)NC(=O)[C@@H](NC(=O)[C@H](CC(C)(C)C)NC(=O)C2(N)CCCCC2)[C@@H](c2ccccc2)OC(=O)[C@H](CO)NC(=O)[C@H]([C@H](O)C(N)=O)NC(=O)CNC(=O)[C@H]([C@H](C)O)NC1=O.O=C(O)C(F)(F)F.O=C(O)C(F)(F)F (stereo partly drawn) [Example 105, N-[(1-Aminocyclohexyl)carbonyl]-(3-tert-butyl-D-alanyl)-de(1-D-leucyl-2-L-leucyl)lysobactin bistri-fluoroacetate] (H-[Ac6c][tBuAla][Phe(3R-OH)][Leu(3R-OH)]L[dR][ξIle][aThr]G[Asn(3S-OH)]S; ester 3-C) |  |  |  |  | 0.5 | 0.063 µg/mL | 1 | 0.5
9 | CC[C@H](C)C1NC(=O)[C@@H](CCCNC(=N)N)NC(=O)[C@H](CC(C)C)NC(=O)[C@H]([C@H](O)C(C)C)NC(=O)[C@@H](NC(=O)[C@H](CCCCNC(=O)OCc2ccccc2)NC(=O)[C@H](N)CC(C)(C)C)[C@@H](c2ccccc2)OC(=O)[C@H](CO)NC(=O)[C@H]([C@H](O)C(N)=O)NC(=O)CNC(=O)[C@H]([C@H](C)O)NC1=O.O=C(O)C(F)(F)F.O=C(O)C(F)(F)F (stereo partly drawn) [Example 107, {(3-tert-Butylalanyl)-[N^6-(benzyloxycarbonyl)lysyl]}-de(1-D-leucyl-2-L-leucyl)lysobactin bistrifluoroacetate] (H-[d(tBuAla)]K(Cbz)[Phe(3R-OH)][Leu(3R-OH)]L[dR][ξIle][aThr]G[Asn(3S-OH)]S; ester 3-C) | 0.25 | 0.25 | 1 | 0.5 |  |  |  | 

Source: US7368424B2, “Acylated nonadepsipeptides” (AiCuris GmbH & Co. KG, priority 2003, dated 2008)
